According to the NIST ThermoML archive (doi:10.1021/je9003806):
± gives the expanded uncertainty stated by the source.

Details: 101.33 kPa, Liquid

CCOC(=O)CC(=O)OCC [diethyl 1,3-propanedioate]
Details	mass density [kg/m3]
278.15 K	1071.04 ± 0.12
288.14 K	1060.33 ± 0.11
298.15 K	1049.6 ± 0.11
313.15 K	1033.5 ± 0.093
328.15 K	1017.34 ± 0.081
338.15 K	1006.5 ± 0.073
348.15 K	995.631 ± 0.071
358.15 K	984.697 ± 0.08
